Data: US20050209256A1, “Novel beta-turn mimetics as calcitonin gene related peptide receptor antagonists” (priority 2004, published 2005)

biological target: T1, human CGRP receptor (Homo sapiens, UniProt O60894+Q16602); test: Radioligand binding assay, [125I]-CGRP competition on SK-N-MC cell homogenates; details: Binding data, [125I]-CGRP 40 pM, room temperature
T1 construct: SK-N-MC cells that endogenously express the human CGRP receptor; endogenous in cells; host or cells: SK-N-MC cells (membrane homogenates)
Protocol: Tissue culture. SK-N-MC cells were grown at 37° C. in 5% CO2 as a monolayer in medium consisting of MEM with Earle's salts and L-glutamine (Gibco) supplemented with 10% fetal bovine serum (Gibco).
Radioligand binding assays. Cells were rinsed twice with phosphate-buffered saline (155 mM NaCl, 3.3 mM Na2HPO4, 1.1 mM KH2PO4, pH 7.4), and incubated for 5-10 min. at 4° C. in hypotonic lysis buffer consisting of 10 mM Tris (pH 7.4) and 5 mM EDTA. Cells were transferred from plates to polypropylene tubes (16×100 mm), homogenized and centrifuged at 32,000×g for 30 min. Pellets were resuspended in buffer consisting of 50 mM Tris (pH 7.4) and 1 mM EDTA, homogenized, and centrifuged again at 32,000×g for 30 min. Pellets were resuspended in 100 mM Tris-Cl pH 7.5, 10 mM MgCl2, 0.1% mammalian protease inhibitor cocktail (Sigma) and stored at −80° C. until needed. On the day of an experiment, homogenates were thawed and homogenized again. Binding of [^125I]-CGRP (NEN) was carried out in buffer containing 50 mM Tris-Cl pH 7.5, 5 mM MgCl2, 0.5% BSA. Homogenates (3.5 μg protein/well) were incubated with competitor compounds (solubilized in 100% DMSO at 100× their final assay concentrations) for one hour at room temperature. Then [^125I]-CGRP was added (40 pM final concentration) and the reaction incubated for one additional hour at room temperature. Assays were stopped by addition of cold wash buffer (20 mM Tris-Cl pH 7.5, 0.1% BSA) immediately followed by filtration over glass fiber filters (Whatman GF/B) previously soaked in 0.5% PEI. Non-specific binding was defined with 100 nM CGRP.

SMILES | IC50
CC(=O)c1ccc(NC(=O)N2CCC(=O)N3[C@@H]2CN(CCc2cccc(F)c2)C(=O)[C@@H]3COCc2ccccc2)cc1 [Compound 32, (6S,9aS)-6-Benzyloxymethyl-8-[2-(3-fluoro-phenyl)-ethyl]-4,7-dioxo-hexahydro-pyrazino[1,2-a]pyrimidine-1-carboxylic acid (4-acetyl-phenyl)-amide] | 598 nM
CC(=O)c1ccc(NC(=O)N2CCC(=O)N3[C@@H]2CN(CCc2cccc(F)c2)C(=O)[C@@H]3Cc2ccc(OCc3ccccc3)cc2)cc1 [Compound 33, (6S,9aS)-6-(4-Benzyloxy-benzyl)-8-[2-(3-fluoro-phenyl)-ethyl]-4,7-dioxo-hexahydro-pyrazino[1,2-a]pyrimidine-1-carboxylic acid (4-acetyl-phenyl)-amide] | 2260 nM
CC(=O)c1ccc(NC(=O)N2CCC(=O)N3[C@@H]2CN(CCc2cccc(F)c2)C(=O)[C@@H]3CCS(C)(=O)=O)cc1 [Compound 36, (6S,9aS)-8-[2-(3-Fluoro-phenyl)-ethyl]-6-(2-methanesulfonyl-ethyl)-4,7-dioxo-hexahydro-pyrazino[1,2-a]pyrimidine-1-carboxylic acid (4-acetyl-phenyl)-amide] | 350 nM
CC[C@@H](C)[C@H]1C(=O)N(CCc2cccc(F)c2)C[C@@H]2N(C(=O)Nc3ccc(C(C)=O)cc3)CCC(=O)N12 [Compound 39, (6S,9aS)-6-(1R-methyl-propyl)-8-[2-(3-fluoro-phenyl)-ethyl]--4,7-dioxo-hexahydro-pyrazino[1,2-a]pyrimidine-1-carboxylic acid (4-acetyl-phenyl)-amide] | 233 nM
CC(=O)c1ccc(NC(=O)N2CCC(=O)N3[C@@H]2CN(CCc2cccc(F)c2)C(=O)[C@@H]3CCC(N)=O)cc1 [Compound 40, (6S,9aS)-6-(2-Carbamoyl-ethyl)-8-[2-(3-fluoro-phenyl)-ethyl]-4,7-dioxo-hexahydro-pyrazino[1,2-a]pyrimidine-1-carboxylic acid (4-acetyl-phenyl)-amide] | 2360 nM
CC(=O)c1ccc(NC(=O)N2CCC(=O)N3[C@@H](C4CCNCC4)C(=O)N(CCc4cccc(F)c4)C[C@H]23)cc1 [Compound 43, (6S,9aS)-8-[2-(3-Fluoro-phenyl)-ethyl]-4,7-dioxo-6-piperidin-4-yl-hexahydro-pyrazino[1,2-a]pyrimidine-1-carboxylic acid (4-acetyl-phenyl)-amide] | 4000 nM
CC(=O)c1ccc(NC(=O)N2CCC(=O)N3[C@@H](c4ccccc4)C(=O)N(CCc4cccc(F)c4)C[C@H]23)cc1 [Compound 46, (6S,9aS)-8-[2-(3-Fluoro-phenyl)-ethyl]-4,7-dioxo-6-phenyl-hexahydro-pyrazino[1,2-a]pyrimidine-1-carboxylic acid (4-acetyl-phenyl)-amide] | 167 nM
CC(=O)c1ccc(NC(=O)N2CCC(=O)N3[C@@H](C4CCCCC4)C(=O)N(CCc4cccc(F)c4)C[C@H]23)cc1 [Compound 48, (6S,9aS)-6-Cyclohexyl-8-[2-(3-fluoro-phenyl)-ethyl]-4,7-dioxo-hexahydro-pyrazino[1,2-a]pyrimidine-1-carboxylic acid (4-acetyl-phenyl)-amide] | 115 nM
CC(=O)c1ccc(NC(=O)N2CCC(=O)N3[C@@H](C4CCOCC4)C(=O)N(CCc4cccc(F)c4)C[C@H]23)cc1 [Compound 52, (6S,9aS)-8-[2-(3-Fluoro-phenyl)-ethyl]-4,7-dioxo-6-(tetrahydro-pyran-4-yl)-hexahydro-pyrazino[1,2-a]pyrimidine-1-carboxylic acid (4-acetyl-phenyl)-amide] | 358 nM
CC(=O)c1ccc(NC(=O)N2c3cc4ccccc4cc3C(=O)N3[C@@H](C4CCOCC4)C(=O)N(CCc4cccc(F)c4)C[C@H]23)cc1 [Compound 53, (4S,12S)-2-[2-(3-Fluoro-phenyl)-ethyl]-3,5-dioxo-4-(tetrahydro-pyran-4-yl)-1,3,4,12a-tetrahydro-2H,5H-2,4a,12-triaza-naphthacene-12-carboxylic acid (4-acetyl-phenyl)-amide] | 2970 nM
CC(=O)c1ccc(NC(=O)N2CCC(=O)N3[C@@H](c4ccc(F)c(F)c4)C(=O)N(CCc4ccccc4)C[C@H]23)cc1 [Compound 59, (6S,9aS)-6-(3,4-Difluoro-phenyl)-4,7-dioxo-8-phenethyl-hexahydro-pyrazino[1,2-a]pyrimidine-1-carboxylic acid (4-acetyl-phenyl)-amide] | 271 nM
CC(=O)c1ccc(NC(=O)N2CCC(=O)N3[C@@H](c4ccccc4)C(=O)N(CCc4ccccc4)C[C@H]23)cc1 [Compound 64, (6S,9aS)-4,7-Dioxo-8-phenethyl-6-phenyl-hexahydro-pyrazino[1,2-a]pyrimidine-1-carboxylic acid (4-acetyl-phenyl)-amide] | 473 nM
CC(=O)c1ccc(NC(=O)N2CCC(=O)N3[C@@H]2CN(CCc2ccccc2)C(=O)[C@@H]3CC2CCCCC2)cc1 [Compound 65, (6S,9aS)-6-Cyclohexylmethyl-4,7-dioxo-8-phenethyl-hexahydro-pyrazino[1,2-a]pyrimidine-1-carboxylic acid (4-acetyl-phenyl)-amide] | 517 nM
NC(=O)c1ccc(NC(=O)N2CCC(=O)N3[C@@H]2CN(CCc2ccccc2)C(=O)[C@@H]3CC2CCCCC2)cc1 [Compound 111, (6S,9aS)-6-Cyclohexylmethyl-4,7-dioxo-8-phenethyl-hexahydro-pyrazino[1,2-a]pyrimidine-1-carboxylic acid (4-carbamoyl-phenyl)-amide] | 12000 nM

Further lines, results first:

IC50 | SMILES
1170 nM | CC(=O)c1ccc(NC(=O)N2CCC(=O)N3[C@@H]2CN(CCc2cccc(F)c2)C(=O)[C@@H]3Cc2cc(Br)c(O)c(Br)c2)cc1 [Compound 34, (6S,9aS)-6-(3,5-Dibromo-4-hydroxy-benzyl)-8-[2-(3-fluoro-phenyl)-ethyl]-4,7-dioxo-hexahydro-pyrazino[1,2-a]pyrimidine-1-carboxylic acid (4-acetyl-phenyl)-amide]
1270 nM | CC(=O)c1ccc(NC(=O)N2CCC(=O)N3[C@@H]2CN(CCc2cccc(F)c2)C(=O)[C@@H]3Cc2cncn2C)cc1 [Compound 54, (6S,9aS)-8-[2-(3-Fluoro-phenyl)-ethyl]-6-(3-methyl-3H-imidazol-4-ylmethyl)-4,7-dioxo-hexahydro-pyrazino[1,2-a]pyrimidine-1-carboxylic acid (4-acetyl-phenyl)-amide]
400 nM | CC(=O)c1ccc(NC(=O)N2CCC(=O)N3[C@@H]2CN(CCc2cccc(F)c2)C(=O)[C@@H]3Cc2cc(F)cc(F)c2)cc1 [Compound 55, (6S,9aS)-6-(3,5-Difluoro-benzyl)-8-[2-(3-fluoro-phenyl)-ethyl]-4,7-dioxo-hexahydro-pyrazino[1,2-a]pyrimidine-1-carboxylic acid (4-acetyl-phenyl)-amide]
665 nM | CC(=O)c1ccc(NC(=O)N2CCC(=O)N3[C@@H]2CN(CCc2cccc(F)c2)C(=O)[C@@H]3Cc2cc(F)c(F)c(F)c2)cc1 [Compound 56, (6S,9aS)-8-[2-(3-Fluoro-phenyl)-ethyl]-4,7-dioxo-6-(3,4,5-trifluoro-benzyl)-hexahydro-pyrazino[1,2-a]pyrimidine-1-carboxylic acid (4-acetyl-phenyl)-amide]
500 nM | CC(=O)c1ccc(NC(=O)N2CCC(=O)N3[C@@H]2CN(CCc2cccc(F)c2)C(=O)[C@@H]3Cc2c(F)c(F)c(F)c(F)c2F)cc1 [Compound 57, (6S,9aS)-8-[2-(3-Fluoro-phenyl)-ethyl]-4,7-dioxo-6-pentafluorophenylmethyl-hexahydro-pyrazino [1,2a]pyrimidine-1-carboxylic acid (4-acetyl-phenyl)-amide]
814 nM | CC(=O)c1ccc(NC(=O)N2CCC(=O)N3[C@@H]2CN(CCc2cccc(F)c2)C(=O)[C@@H]3Cc2ccc(F)cc2)cc1 [Compound 58, (6S,9aS)-6-(4-Fluoro-benzyl)-8-[2-(3-fluoro-phenyl)-ethyl]-4,7-dioxo-hexahydro-pyrazino[1,2-a]pyrimidine-1-carboxylic acid (4-acetyl-phenyl)-amide]
624 nM | CC(=O)c1ccc(NC(=O)N2CCC(=O)N3[C@@H]2CN(CCc2cccc(F)c2)C(=O)[C@@H]3Cc2ccc(F)c(F)c2)cc1 [Compound 62, (6S,9aS)-6-(3,4-Difluoro-benzyl)-8-[2-(3-fluoro-phenyl)-ethyl]-4,7-dioxo-hexahydro-pyrazino[1,2-a]pyrimidine-1-carboxylic acid (4-acetyl-phenyl)-amide]
3040 nM | CC(=O)c1ccc(NC(=O)N2CCC(=O)N3[C@@H]2CN(CCc2ccccc2)C(=O)[C@@H]3Cc2ccc(F)c(F)c2)cc1 [Compound 63, (6S,9aS)-6-(3,4-Difluoro-benzyl)-4,7-dioxo-8-phenethyl-hexahydro-pyrazino[1,2-a]pyrimidine-1-carboxylic acid (4-acetyl-phenyl)-amide]
